Reference: patent US12215078B2, “Compositions and methods for protein labeling, modification, analysis, and targeted delivery” (University of Massachusetts, priority 2018, dated 2025)
Entries after “also recorded” stand apart in the source; their conditions may differ. Values belong to the molecule of their own block, whether it stands above or below them.

What was measured:
[1] = Thiol-click (click-to-release) kinetics followed by NMR; format: physicochemical; conditions: for relative reactivity in thiol and amine addition reactions (in words): both thiol and amine addition (FIG. 2B-2C); for thiol-click reaction rate (in words): MeOH-d4, A1:thiol 2:1 (FIG. 2B)
Procedure: (§1) 10 μmol (2 eq.) of A1 molecules was dissolved in single or mixed deuterated solvents (the volume of solvent depends on the solubility of A1). Then, 5 μmol (1 eq.) of 2-(2-Methoxyethoxy) ethanethiol or benzylamine was added to the solution. The reaction was immediately followed by NMR. The final concentration of A1 for each molecule is shown at the end of supplementary information case by case. The conversion of thiol or amine was calculated from the integration of corresponding peaks by NMR and plotted against reaction time.
Compound 1, 2, 3, 4, 5, 8, 11, 12, 13: 10 μmol (2 eq.) of molecule 1, 2, 3, 4, 5, 8, 11, 12, 13 was dissolved in 1000 μL of MeOH-d4. Then, 5 μmol (1 eq.) of thiol was added to the solution. The reaction was immediately followed by NMR.
Compound 6, 7, 9: 10 μmol (2 eq.) of molecule 6, 7, 9 was dissolved in 500 μL of MeOH-d4 and 500 μL of 50 mM pH 7.4 phosphate buffer. Then, 5 μmol (1 eq.) of thiol or amine was added to the solution. The reaction was immediately followed by NMR.
Compound 10: 10 μmol (2 eq.) of molecule 10 was dissolved in 1000 μL of DMSO-d6 and 500 μL of 50 mM pH 7.4 phosphate buffer. Then, 5 μmol (1 eq.) of thiol or amine was added to the solution. The reaction was immediately followed by NMR.
Compound 14, 15, 16: 10 μmol (2 eq.) of molecule 14, 15, 16 was dissolved in dissolved in 500 μL of MeOH-d4 and 500 μL of 50 mM pH 6.2 phosphate buffer. Then, 5 μmol (1 eq.) of thiol or amine was added to the solution. The reaction was immediately followed by NMR.

β-lactoglobulin B (βLGb) = target: T1, β-lactoglobulin B (βLGb) (Bos taurus, UniProt P02754); assay: βLGb labeling, ESI-MS and MS/MS of digests; format: biochemical; conditions: for modification sites / selectivity on βLGb: digest, MS/MS; for time until βLGb fully labelled: excess of reagent, disappearance of unmodified protein peaks in ESI-MS; for number of modifications in βLGb: mass shift, ESI-MS
T1 construct: purchased
T1 sequence (P02754 17-178): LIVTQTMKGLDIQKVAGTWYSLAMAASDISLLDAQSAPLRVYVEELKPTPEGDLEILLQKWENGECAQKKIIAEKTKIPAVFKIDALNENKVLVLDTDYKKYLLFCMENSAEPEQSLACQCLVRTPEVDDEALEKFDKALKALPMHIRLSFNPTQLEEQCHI
Procedure: For βLGb labeling reaction, βLGb was first denatured by 8 M of urea to expose the free cysteine. The denatured protein was then diluted with 50 mM pH 8.0 phosphate buffer, which results in a protein solution concentration of 100 μM. This protein solution was incubated with 20 equivalents of 1 for 5 min or with 20 equivalents of 8 for 40 min at room temperature to obtain the fully modified proteins respectively. After labeling, the reaction mixtures were injected immediately into an HPLC to remove excess labeling reagents and phosphate salts and then later analyzed by ESI-MS.
The labeled βLGb protein samples were first buffer-exchanged using 10K NMWL Amicon Ultra centrifugal filters (Millipore, Burlington, MA) with 100 mM triethylamine acetate (pH 8.0), and reconstituted with 1 M urea before enzymatic digestion. To reduce the disulfide bonds in βLGb, TCEP in water was added at a protein:TCEP molar ratio of 1:20, and the sample was incubated at room temperature for 10 min. To alkylate the reduced cysteines, iodoacetamide in water was added at a protein:iodoacetamide molar ratio of 1:80, and the sample was incubated in the dark at room temperature for 30 min. The denatured, reduced, and alkylated protein samples were then digested with trypsin at an enzyme: substrate ratio of 1:10. After 4 h of digestion at 37° C., the enzyme was separated from the mixture by centrifugation using a 10K NMWL Microcon filter (Millipore, Burlington, MA). The filtrate was then analyzed by LC-MS and LC-MS/MS.
To quench the labeling reaction and to remove excess labeling reagents and buffer salts, a Thermo Scientific Ultimate 3000 HPLC system (Thermo Scientific, Tewksbury, MA) with an OPTI-TRAP C4 reverse phase column (1×8 mm) was used. The protein was eluted using an acetonitrile gradient that increases from 1 to 99% over 12 min at a flow rate of 0.2 mL/min. The labeled protein was collected for proteolytic digestion or intact protein MS characterization.
Mass spectral analyses of the HPLC separated intact protein samples (Myo and βLGb) from the covalent labeling experiments were acquired on a Bruker AmaZon (Billerica, MA) quadrupole ion trap mass spectrometer equipped with an electrospray ionization source. The electrospray needle voltage was kept at 4 kV, and the capillary temperature was set to 250° C. Mass spectra of intact BCA protein samples were acquired on a Thermo Orbitrap Fusion Tribrid (Tewksbury, MA) mass spectrometer. The electrospray ionization source was typically operated at a needle voltage of 3800 V, and the ion transfer tube temperature was set to 325° C.
LC-MS and LC-MS/MS analyses of protein proteolytic fragments were conducted on a Thermo Orbitrap Fusion Tribrid (Tewksbury, MA) mass spectrometer. The electrospray ionization source was typically operated at a needle voltage of 2100 V, and the ion transfer tube temperature was set to 300° C. Tandem mass spectra were collected using CID with a normalized collision energy of 35%. Due to the large number of detectable peaks, an exclusion limit of 60 s was applied after five spectra had been collected for any given peak. The resolution of the Orbitrap was set to 60000.
Raw mass spectral data files were analyzed by Thermo Proteome Discoverer 2.2 software. Spectra were searched against the corresponding protein sequence. Variable modification by certain labeling reagents of the residues and the protein N-terminus was added as a dynamic modification. Other dynamic modifications such as oxidation of methionine and carboxyamidomethylation of cysteine were also used in the searches. Trypsin enzyme cleavage was selected, and a precursor mass tolerance of 10 ppm was used. Identifications of peptides and modifications at high confidence levels were used and were manually checked in all cases.

[2] = Thiol-triggered declick of thiol/amine click products followed by NMR; format: physicochemical
Procedure: Typically, product of thiol-A1 or amine-A1 click product was dissolved in single or mixed deuterated solvents (the volume of solvent depends on the solubility of A1 The volume of solvent depends on the solubility of click product). Then, thiol was added to the solution. The reaction was immediately followed by NMR.
Compound 17: 10 μmol (1 eq.) of 17 was dissolved in 500 μL of MeOH-d4 and 500 μL of 50 mM pH6.8 phosphate buffer. Then, 80 μmol (8 eq.) of thiol was added to the solution. Final concentration of 17 is 10 mM.
Compound 18: 10 μmol (1 eq.) of 18 was dissolved in 500 μL of MeOH-d4 and 500 μL of 50 mM pH7.4 phosphate buffer. Then, 80 μmol (8 eq.) of thiol was added to the solution. Final concentration of 18 is 10 mM.
Compound 19: 10 μmol (1 eq.) of 19 was dissolved in 500 μL of MeOH-d4 and 500 μL of 50 mM pH7.4 phosphate buffer. Then, 10 μmol (0.5 eq.) of thiol was added to the solution. Final concentration of 19 is 10 mM.
Compound 20: 10 μmol (1 eq.) of 20 was dissolved in 1000 μL of MeOH-d4 and 500 μL of 50 mM pH7.4 phosphate buffer. Then, 10 μmol (0.5 eq.) of thiol was added to the solution. Final concentration of 20 is 6.67 mM.
Compound 21: 10 μmol (1 eq.) of 21 was dissolved in 500 μL of MeOH-d4 and 500 μL of 50 mM pH7.4 phosphate buffer. Then, 10 μmol (0.5 eq.) of thiol was added to the solution. Final concentration of 21 is 10 mM. […]

Myoglobin (Myo) = target: T2, Myoglobin (Myo) (Equus caballus, UniProt P68082); assay: Myoglobin reversible modification and biophysical characterization; format: biochemical
T2 construct: purchased
Procedure: For Myoglobin (Myo) reversible modification reactions, the modified protein solution was prepared by reacting 100 μM of the Myo with 20 equivalents of 1 for 5 min in 50 mM pH 8.0 phosphate buffer at room temperature. The proteins were collected from HPLC purification from previous modification reactions, and the excess labeling reagents were removed from the reaction mixtures. The collected protein solution was characterized by ESI-MS or other biophysical characterizations such as Circular Dichroism (CD) and Ultraviolet-Visible Spectroscopy (UV-Vis). The same protein solution was also buffer-exchanged using 10K NMWL Amicon Ultra centrifugal filters (Millipore, Burlington, MA) with 50 mM pH 7.4 phosphate buffer to yield a 100 μM solution for further reverse reaction. […] After reverse modification reaction, the reaction mixture was injected to a LC-MS system for intact protein analyses. […]
Far-UV CD analyses were performed on a Jasco J-1500 spectropolarimeter. CD spectra were recorded at room temperature over a scan range of 260 to 200 nm. […]
Temperature dependent CD measurements were also performed for the protein samples to evaluate the thermal stability (melting temperature) of Myo before and after labeling. Ellipticity at 222 nm was recorded every 1° C. from 25° C. to 90° C. […] Samples were measured in triplicates and the results were shown in average values.

[3] = Amine-click kinetics followed by NMR; format: physicochemical
Procedure: as §1
• Compound 1, 2, 3, 4, 5, 6, 7, 8, 9, 11, 12, 13: 10 μmol (2 eq.) of molecule 1, 2, 3, 4, 5, 6, 7, 8, 9, 11, 12, 13 was dissolved in 500 μL of MeOH-d4 and 500 μL of 50 mM pH 7.4 phosphate buffer. Then, 5 μmol (1 eq.) of benzylamine was added to the solution. The reaction was immediately followed by NMR.
Compound 10: 10 μmol (2 eq.) of molecule 10 was dissolved in 1000 μL of DMSO-d6 and 500 μL of 50 mM pH 7.4 phosphate buffer. Then, 5 μmol (1 eq.) of benzylamine was added to the solution. The reaction was immediately followed by NMR.
Compound 14, 15, 16: 10 μmol (2 eq.) of molecule 14, 15, 16 was dissolved in 800 μL of MeOH-d4 and 200 μL of 50 mM pH 7.4 phosphate buffer. Then, 5 μmol (1 eq.) of benzylamine was added to the solution. The reaction was immediately followed by NMR.

T2 sequence (P68082 whole entry): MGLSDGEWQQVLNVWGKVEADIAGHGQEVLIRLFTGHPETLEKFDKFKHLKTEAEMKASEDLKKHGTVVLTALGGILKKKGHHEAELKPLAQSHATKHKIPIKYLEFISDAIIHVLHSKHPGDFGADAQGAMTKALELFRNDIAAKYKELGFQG

- modification sites / selectivity on βLGb (β-lactoglobulin B (βLGb)): only the free cysteine site was modified
- time until βLGb fully labelled (β-lactoglobulin B (βLGb)): ≤ 40 min
- number of modifications in βLGb (β-lactoglobulin B (βLGb)): one
Compound: C=C(C[N+](CC)(CC)CC)C(=O)NC [Compound 8]
- relative reactivity in thiol and amine addition reactions (in words) [1]: considerably slower than the corresponding acrylates; also recorded: less reactive than ester 1

Compound: C=C(COC(C)=O)C(=O)NC [Compound 9]
- relative reactivity in thiol and amine addition reactions (in words) [1]: considerably slower than the corresponding acrylates

Compound: C=C(CN(CC(=C)C(=O)OC)Cc1ccccc1)C(=O)OC [Compound 23]
- benzylamine (29) released in declick ([2]; 2 equivalents of T2, MeOH-d4 / 50 mM pH 7.4 phosphate buffer 2:1): More than 80%

Compound: C=C(CSCCOCCOC)C(=O)OC [Compound 17]
- originally clicked T2 released in declick ([2]; 8 equivalents of ethanethiol (T1), MeOH-d4 / 50 mM pH 6.8 phosphate buffer 1:1): 70%

Compound: C=C(COC(=O)Nc1ccc([N+](=O)[O-])cc1)C(=O)NC [Compound 10]
- relative reactivity in thiol and amine addition reactions (in words) [1]: considerably slower than the corresponding acrylates

- reversal of myoglobin modification by thiol (Myoglobin (Myo); 10 equivalents of thiol for 2 hours): reversed to unmodified myoglobin
- modifications on myoglobin (Myoglobin (Myo); treated with 1, ESI-MS): Multiple modifications
- time until βLGb fully labelled (β-lactoglobulin B (βLGb)): ≤ 5 min
- number of modifications in βLGb (β-lactoglobulin B (βLGb)): one to four
Compound: C=C(C[N+](CC)(CC)CC)C(=O)OC [Compound 1]
- time for completion of reaction with the thiol ([1]; 1H NMR, 0.5 equivalent of thiol, 50 mM pH 7.4 phosphate buffer (FIG. 7)): 3 min
- modification sites / selectivity on βLGb (β-lactoglobulin B (βLGb)): non-selective; also recorded: modifications of other nucleophilic residues including lysine, tyrosine and threonine
- time for completion of reaction with benzylamine ([3]; pH 7.4): ~50 min

Compound: C=C(C[n+]1ccccc1)C(=O)OC [Compound 4]
- thiol-click reaction rate (in words) [1]: much slower
- reactivity toward benzylamine (in words) ([3]; pH maintained, deuterated MeOH/buffer mixed media (FIG. 2C)): higher than 5

Compound: C=C(C[n+]1ccc(N(C)C)cc1)C(=O)OC [Compound 5]
- thiol-click reaction rate (in words) [1]: much slower; also recorded: faster than 4
